Source: ChEMBL document CHEMBL6177984, “Pyrazolo[1,5-a]pyrimidine-Based Type-I Photosensitizer as an Efficient Pyroptosis Inducer for Tumor Ablation” (J Med Chem, 2025)
One block for each molecule: values may come before it. The source made the active and inactive calls. The rule behind the calls is not given here.

What was measured:
[1] = Induction of ROS generation in BPS buffer assessed as increase in superoxide anion radical level by measuring increase in DHR123 fluorescence intensity at 10 uM irradiated with 400 to 700 nm 20 mW/cm2 light by DHR123 probe based fluorescence spectra analysis; assay type: functional; conditions: time <= 10.0 min
[2] = tested on: MDA-MB-231; experiment: Induction of pyroptosis in human MDA-MB-231 cells assessed as change in LDH level at 0.5 uM preincubated with compound for 1 hr followed by light irradiated with 400 to 700 nm 100 mW/cm^2 for 10 mins and measured after 12 to 24 hrs; assay type: functional, cell-based; conditions: time 790-1510 min
[3] = Toxicity in BALB/c mouse implanted with mouse 4T1 cells assessed as heart damage at 1 mg/kg, iv using self assembled nanoparticle as source of compound measured up to 16 days by H and E staining based analysis; assay type: organism-based; conditions: in vivo, 384 h, time < 16 day
[4] = tested on: MDA-MB-231; experiment: (§1) Photocytotoxicity in human MDA-MB-231 cells assessed as cell death by measuring red fluorescence intensity at 0.5 uM preincubated with compound for 1 hr followed by light irradiated with 400 to 700 nm 100 mW/cm^2 for 10 mins and measured after 24 hrs by PI staining based confocal microscopic analysis; assay type: functional; conditions: time 1510.0 min
[5] = tested on: 4T1; experiment: Photocytotoxicity in mouse 4T1 cells assessed as cell viability up to 10 uM preincubated with compound for 1 hr followed by light irradiated with 400 to 700 nm 100 mW/cm^2 for 10 mins and measured after 24 hrs by CCK-8 assay; assay type: functional, cell-based; conditions: time 1510.0 min
[6] = tested on: MDA-MB-231; experiment: Photocytotoxicity in human MDA-MB-231 cells assessed as cell viability preincubated with compound for 1 hr followed by light irradiated with 400 to 700 nm 100 mW/cm^2 for 10 mins and measured after 24 hrs under hypoxic condition by CCK-8 assay; assay type: functional, cell-based; conditions: MDA-MB-231, light or radiation study
[7] = tested on: MDA-MB-231; experiment: Induction of pyroptosis in human MDA-MB-231 cells assessed as swelling bubble formation at 0.5 uM preincubated with compound for 3 hrs followed by light irradiated with 400 to 700 nm 100 mW/cm^2 for 10 mins by confocal microscopic analysis; assay type: functional, cell-based; conditions: time 190.0 min
[8] = tested on: MDA-MB-231; experiment: (§2) Induction of pyroptosis mediated immunogenic cell death in human MDA-MB-231 cells assessed as HMGB1 release from nucleus at 0.5 uM preincubated with compound for 1 hr followed by light irradiated with 400 to 700 nm 100 mW/cm^2 for 10 mins and measured after 18 hrs; assay type: functional, cell-based; conditions: time 1150.0 min
[9] = tested on: MDA-MB-231; experiment: Effect on caspase-3 expression in human MDA-MB-231 cells at 0.5 to 1 uM incubated for 3 hrs by Western blot analysis; assay type: functional, cell-based; conditions: dose 0.5-1 µM
[10] = tested on: MDA-MB-231; experiment: Induction of ROS production in human MDA-MB-231 cells assessed as increase in red fluorescence intensity at 0.3 uM preincubated with compound for 1 hr followed by light irradiation with 400 to 700 nm 100 mW/cm2 for 10 mins by […] fluorescent probe based flow cytometry; assay type: functional, cell-based; conditions: time 70.0 min
[11] = tested on: MDA-MB-231; experiment: as §1, with “cell viability” for “cell death”, “measuring green” for “measuring red”, “by Calcein-AM” for “by PI”; assay type: functional; conditions: time 1510.0 min
[12] = tested on: MDA-MB-231; experiment: Induction of ROS production in human MDA-MB-231 cells assessed as increase in green fluorescence intensity at 0.3 uM preincubated with compound for 1 hr followed by light irradiation with 400 to 700 nm 100 mW/cm2 for 10 mins by HPF fluorescent probe based flow cytometry; assay type: functional, cell-based; conditions: time 70.0 min
[13] = tested on: MDA-MB-231; experiment: Induction of pyroptosis mediated immunogenic cell death in human MDA-MB-231 cells assessed as increase in CRT exposure on cell membrane at 0.5 uM preincubated with compound for 1 hr followed by light irradiated with 400 to 700 nm 100 mW/cm^2 for 10 mins and measured after 18 hrs; assay type: functional, cell-based; conditions: time 1150.0 min
[14] = Drug uptake in human MDA-MB-231 cells at 2 uM measured at 1 hr by flow cytometry analysis; assay type: ADME, cell-based; conditions: mda-mb-231, 1 h
[15] = Toxicity in BALB/c mouse implanted with mouse 4T1 cells assessed as lung damage at 1 mg/kg, iv using self assembled nanoparticle as source of compound measured up to 16 days by H and E staining based analysis; assay type: organism-based; conditions: in vivo, 384 h, time < 16 day
[16] = tested on: 4T1; experiment: (§3) Antitumor activity against mouse 4T1 cells implanted in BALB/c mouse assessed as increase CD4+ CD8+ cells in spleen at 1 mg/kg, iv using self assembled nanoparticle as source of compound preincubated with compound for 3 hrs followed by irradiation with 400 to 700 nm 100 mW/cm2 for 5 mins and measured after 14 days by flow cytometry analysis; assay type: functional, organism-based; conditions: time 20345.0 min
[17] = tested on: MDA-MB-231; experiment: Induction of pyroptosis in human MDA-MB-231 cells assessed as increase in IL-1beta content at 0.5 uM preincubated with compound for 1 hr followed by light irradiated with 400 to 700 nm 100 mW/cm^2 for 10 mins and measured after 12 to 20 hrs; assay type: functional, cell-based; conditions: time 790-1270 min
[18] = Dark cytotoxicity against human MDA-MB-231 cells assessed as cell viability incubated for 24 hrs by CCK8 assay; assay type: toxicity, cell-based
[19] = tested on: MDA-MB-231; experiment: Induction of ROS production in human MDA-MB-231 cells assessed as increase in red fluorescence intensity at 0.3 uM preincubated with compound for 1 hr followed by light irradiation with 400 to 700 nm 100 mW/cm2 for 10 mins by DHE fluorescent probe based flow cytometry; assay type: functional, cell-based; conditions: time 70.0 min
[20] = tested on: MDA-MB-231; experiment: Induction of pyroptosis in human MDA-MB-231 cells assessed as formation of bubble-like protrusion on plasma membrane at 0.5 uM preincubated with compound for 1 hr followed by light irradiated with 400 to 700 nm 100 mW/cm^2 for 10 mins and measured after 6 hrs by DiO staining based confocal microscopic analysis; assay type: functional, cell-based; conditions: time 430.0 min
[21] = tested on: MDA-MB-231; experiment: as §2, with “increase in ATP” for “HMGB1”, “release” for “release from nucleus”, “6 to 12” for “18”, “hrs by microplate luminometer analysis” for “hrs”; assay type: functional, cell-based; conditions: time 430-790 min
[22] = tested on: MDA-MB-231; experiment: Upregulation of N-terminal GSDME expression in human MDA-MB-231 cells at 0.5 to 1 uM preincubated with compound for 1 hr followed by light irradiated with 400 to 700 nm 100 mW/cm^2 for 10 mins and measured after 6 hrs by Western blot analysis; assay type: functional, cell-based; conditions: dose 0.5-1 µM, time 430.0 min
[23] = Toxicity in BALB/c mouse implanted with mouse 4T1 cells assessed as change in body weight at 1 mg/kg, iv using self assembled nanoparticle as source of compound measured up to 16 days; assay type: organism-based; conditions: in vivo, 384 h, time < 16 day
[24] = Induction of ROS generation in BPS buffer assessed as increase in singlet oxygen level by measuring reduction in ABDA absorption peak at 10 uM irradiated with 400 to 700 nm 20 mW/cm2 light […]; assay type: functional
[25] = Toxicity in BALB/c mouse implanted with mouse 4T1 cells assessed as kidney damage at 1 mg/kg, iv using self assembled nanoparticle as source of compound measured up to 16 days by H and E staining based analysis; assay type: organism-based; conditions: in vivo, 384 h, time < 16 day
[26] = tested on: MDA-MB-231; experiment: Photocytotoxicity in human MDA-MB-231 cells assessed as cell viability preincubated with compound for 1 hr followed by light irradiated with 400 to 700 nm 100 mW/cm^2 for 10 mins and measured after 24 hrs by CCK-8 assay; assay type: functional, cell-based; conditions: MDA-MB-231, light or radiation study
[27] = tested on: MDA-MB-231; experiment: Induction of ROS production in human MDA-MB-231 cells assessed as increase in […] fluorescence intensity at 0.3 uM preincubated with compound for 1 hr followed by light irradiation with 400 to 700 nm 100 mW/cm2 for 10 mins by DHE fluorescent probe based flow cytometry; assay type: functional, cell-based; conditions: time 70.0 min
[28] = tested on: MDA-MB-231; experiment: Induction of pyroptosis in human MDA-MB-231 cells assessed as increase in IL-18 content at 0.5 uM preincubated with compound for 1 hr followed by light irradiated with 400 to 700 nm 100 mW/cm^2 for 10 mins and measured after 12 to 20 hrs; assay type: functional, cell-based; conditions: time 790-1270 min
[29] = tested on: 4T1; experiment: as §3, with “lymph” for “spleen”; assay type: functional, organism-based; conditions: time 20345.0 min
[30] = tested on: MDA-MB-231; experiment: Upregulation of cleaved caspase expression in human MDA-MB-231 cells at 0.5 to 1 uM preincubated with compound for 1 hr followed by light irradiated with 400 to 700 nm 100 mW/cm^2 for 10 mins and measured after 3 hrs by Western blot analysis; assay type: functional, cell-based; conditions: dose 0.5-1 µM, time 250.0 min
[31] = tested on: MDA-MB-231; experiment: Induction of ROS production in human MDA-MB-231 cells assessed as increase in intracellular OH level at 0.3 uM preincubated with compound for 1 hr followed by light irradiation with 400 to 700 nm 100 mW/cm2 for 10 mins by HPF fluorescent probe based flow cytometry; assay type: functional, cell-based; conditions: time 70.0 min
[32] = tested on: MDA-MB-231; experiment: Dark cytotoxicity against human MDA-MB-231 cells assessed as cell viability at 1 uM incubated for 24 hrs by CCK8 assay; assay type: toxicity, cell-based; conditions: mda-mb-231, 24 h
[33] = tested on: MDA-MB-231; experiment: Photocytotoxicity in human MDA-MB-231 cells assessed as cell viability at 1 uM preincubated with compound for 1 hr followed by light irradiated with 400 to 700 nm 100 mW/cm^2 for 10 mins and measured after 24 hrs by CCK-8 assay; assay type: functional, cell-based; conditions: time 1510.0 min
[34] = tested on: 4T1; experiment: as §3, with “increase” for “increase CD4+ CD8+ cells”, “caspase-3 level” for “spleen”, “days” for “days by flow cytometry analysis”; assay type: functional, organism-based; conditions: time 20345.0 min
[35] = Toxicity in BALB/c mouse implanted with mouse 4T1 cells assessed as liver damage at 1 mg/kg, iv using self assembled nanoparticle as source of compound measured up to 16 days by H and E staining based analysis; assay type: organism-based; conditions: in vivo, 384 h, time < 16 day
[36] = Toxicity in BALB/c mouse implanted with mouse 4T1 cells assessed as spleen damage at 1 mg/kg, iv using self assembled nanoparticle as source of compound measured up to 16 days by H and E staining based analysis; assay type: organism-based; conditions: in vivo, 384 h, time < 16 day
[37] = tested on: 4T1; experiment: Antitumor activity against mouse 4T1 cells implanted in BALB/c mouse at 1 mg/kg, iv using self assembled nanoparticle as source of compound measured at 3 hrs; assay type: functional, organism-based
[38] = tested on: MDA-MB-231; experiment: Photocytotoxicity in human MDA-MB-231 cells assessed as reduction in ATP level at 0.5 uM preincubated with compound for 6 hrs followed by light irradiated with 400 to 700 nm 100 mW/cm^2 for 10 mins; assay type: functional, cell-based; conditions: time 370.0 min
[39] = tested on: MDA-MB-231; experiment: Induction of apoptosis in human MDA-MB-231 cells assessed as cell death by flow cytometry analysis; assay type: functional, cell-based
[40] = tested on: 4T1; experiment: Induction of pyroptosis in mouse 4T1 cells preincubated with compound for 1 hr followed by light irradiated with 400 to 700 nm 100 mW/cm^2 for 10 mins; assay type: functional, cell-based; conditions: time 70.0 min
[41] = tested on: MDA-MB-231; experiment: Effect on GSDME expression in human MDA-MB-231 cells at 0.5 to 1 uM incubated for 3 hrs by Western blot analysis; assay type: functional, cell-based; conditions: dose 0.5-1 µM

Drug uptake [14]: Active
SMILES: CC[n+]1c(/C=C/c2ccc(-c3cnn4ccc(N5CCOCC5)nc34)s2)sc2ccccc21.[I-]
Activity [1]: Time-dependent-effect | Activity [2]: Active | Activity [3]: Non-toxic | Activity [4]: Active | Activity [5]: Active | IC50 [6]: 1100 nM | Activity [7]: Active | Activity [8]: Active | Activity [9]: inactive | Activity [10]: Active | Activity [11]: Active | Activity [12]: Active | Activity [13]: Active | Activity [15]: Non-toxic | Activity [16]: Active | Activity [17]: Active | IC50 at 24 h [18]: > 20000 nM | Activity [19]: Active | Activity [20]: Active | Activity [21]: Active | Activity [22]: Active | Activity [23]: Non-toxic | Activity [24]: Active | Activity [25]: Non-toxic | IC50 [26]: 220 nM | Activity [27]: Active | Activity [28]: Active | Activity [29]: Active | Activity [30]: Active | Activity [31]: Active | Activity [32]: Non-toxic | Activity [33]: Active | Activity [34]: Active | Activity [35]: Non-toxic | Activity [36]: Non-toxic | Activity [37]: Active | Activity [38]: Active | Activity [39]: Active | Activity [40]: Active | Activity [41]: inactive

SMILES: CC[n+]1c(/C=C/c2ccc(-c3cnn4ccc(N5CCOCC5)nc34)o2)sc2ccccc21
IC50 at 24 h [18]: > 10000 nM | IC50 [26]: 1010 nM
